# Experimental data reported in ChEMBL document CHEMBL5352389, “Design and synthesis of chromone-based monoamine oxidase B inhibitors with improved drug-like properties” (Eur J Med Chem, 2022).
# Columns and labels:
# [1] = molecular target: T1, Amine oxidase [flavin-containing] A (Homo sapiens, UniProt P21397); experiment: Inhibition of human MAO-A using p-tyramine as substrate at 10 uM incubated for 15 mins by Amplex red and horseradish peroxidase based fluorescence assay; conditions: 0.25 h
# T1 sequence (P21397 whole entry): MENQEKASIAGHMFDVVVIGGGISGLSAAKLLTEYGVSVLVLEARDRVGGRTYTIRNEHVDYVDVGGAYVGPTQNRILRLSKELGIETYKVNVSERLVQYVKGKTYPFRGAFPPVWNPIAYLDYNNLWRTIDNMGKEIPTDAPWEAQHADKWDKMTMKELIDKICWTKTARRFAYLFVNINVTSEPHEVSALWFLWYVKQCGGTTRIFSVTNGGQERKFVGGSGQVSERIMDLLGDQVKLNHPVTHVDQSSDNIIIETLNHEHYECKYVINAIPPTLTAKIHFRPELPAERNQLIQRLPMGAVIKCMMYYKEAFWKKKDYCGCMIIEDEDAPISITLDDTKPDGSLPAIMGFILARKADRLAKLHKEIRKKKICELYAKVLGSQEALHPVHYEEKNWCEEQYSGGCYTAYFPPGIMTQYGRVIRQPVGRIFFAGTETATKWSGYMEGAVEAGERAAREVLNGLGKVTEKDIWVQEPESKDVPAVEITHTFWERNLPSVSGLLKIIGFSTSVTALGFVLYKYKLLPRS
# [2] = molecular target: T2, Amine oxidase [flavin-containing] B (Homo sapiens, UniProt P27338); experiment: Inhibition of human MAO-B using p-tyramine as substrate incubated for 15 mins by Amplex red and horseradish peroxidase based fluorescence assay
# T2 sequence (P27338 whole entry): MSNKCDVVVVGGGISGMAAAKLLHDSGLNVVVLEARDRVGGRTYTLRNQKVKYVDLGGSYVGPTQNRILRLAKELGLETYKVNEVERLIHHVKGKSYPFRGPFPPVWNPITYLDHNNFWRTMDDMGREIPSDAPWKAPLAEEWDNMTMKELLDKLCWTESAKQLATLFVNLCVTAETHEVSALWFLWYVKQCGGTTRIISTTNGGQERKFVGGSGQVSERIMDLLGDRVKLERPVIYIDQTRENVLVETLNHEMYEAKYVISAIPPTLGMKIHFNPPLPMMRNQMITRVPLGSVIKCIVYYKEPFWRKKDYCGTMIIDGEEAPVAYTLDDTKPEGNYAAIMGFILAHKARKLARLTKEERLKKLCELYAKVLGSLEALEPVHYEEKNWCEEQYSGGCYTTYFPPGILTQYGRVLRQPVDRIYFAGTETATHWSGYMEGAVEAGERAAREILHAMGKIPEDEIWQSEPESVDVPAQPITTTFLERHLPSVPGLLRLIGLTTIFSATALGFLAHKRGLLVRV
# [3] = organism: Homo sapiens; experiment: Selectivity index, ratio of IC50 for human MAO-A to IC50 for human MAO-B
# [4] = Cytotoxicity against human SH-SY5Y cells assessed as cell viability by measuring metabolic activity upto 10 uM incubated for 24 hrs by resazurin dye based assay relative to control; assay type: toxicity; conditions: read-out: Activity
# [5] = Cytotoxicity against human SH-SY5Y cells assessed as cell viability by measuring lysosomal activity upto 10 uM incubated for 24 hrs by neutral red uptake assay relative to control; assay type: toxicity, cell-based; conditions: read-out: Activity
# [6] = molecular target: T2, Amine oxidase [flavin-containing] B; experiment: Inhibition of human MAO-B using p-tyramine as substrate at 10 uM incubated for 15 mins by Amplex red and horseradish peroxidase based fluorescence assay; conditions: 0.25 h
# [7] = tested on: SH-SY5Y; experiment: Iron(III) chelating activity in FeNTA-treated human SH-SY5Y cells assessed as cell viability by measuring lysosomal activity at 1 to 10 uM measured after 24 hrs by neutral red uptake assay (reference value: 66.5 +/- […] %); assay type: cell-based; conditions: dose 1-10 µM
# [8] = molecular target: T1, Amine oxidase [flavin-containing] A; experiment: Inhibition of human MAO-A using p-tyramine as substrate incubated for 15 mins by Amplex red and horseradish peroxidase based fluorescence assay
# [9] = molecular target: T3, MAO-A (amine oxidase [flavin-containing] A) (Homo sapiens, UniProt P21397); experiment: Inhibition of human MAO-A using p-tyramine as substrate incubated for 15 mins by Amplex red and horseradish peroxidase based fluorescence assay relative to control; conditions: human MAO-A enzyme, probe p-tyramine
# T3 sequence (P21397 whole entry): T1 sequence (P21397 whole entry)
# [10] = tested on: SH-SY5Y; experiment: Iron(III) chelating activity in FeNTA-treated human SH-SY5Y cells assessed as cell viability by measuring lysosomal activity at 10 uM measured after 24 hrs by neutral red uptake assay (reference value: 66.5 +/- […] %); assay type: cell-based
inhibition (INH) [1],IC50 [2] [nM],Ratio IC50 [3],SMILES,further results
Not Active,598,> 17,O=C(Nc1ccc(O)cc1)c1coc2cccc(O)c2c1=O,–
Not Active,6.8,> 1470,COc1ccc2occ(C(=O)Nc3cccc(Cl)c3)c(=O)c2c1,"viability at 24 h, up to 10 µM [4]: ≥ 94.4%; viability at 24 h, up to 10 µM [5]: ≥ 94.4%"
Not Active,8.3,> 1200,O=C(Nc1ccc(Cl)cc1)c1coc2cccc(O)c2c1=O,"viability at 24 h, up to 10 µM [4]: ≥ 94.4%; viability at 24 h, up to 10 µM [5]: ≥ 94.4%; Activity [7]: 74.4%"
Not Active,29.8,> 336,O=C(Nc1cccc(Cl)c1)c1coc2ccc(O)cc2c1=O,–
Not Active,4830,> 2.1,O=C(Nc1ccc(O)cc1)c1coc2ccc(O)cc2c1=O,–
Not Active,25,> 400,O=C(Nc1cccc(Cl)c1)c1coc2cccc(O)c2c1=O,"viability at 24 h, up to 10 µM [4]: ≥ 94.4%; viability at 24 h, up to 10 µM [5]: ≥ 94.4%; Activity [7]: 74.4%"
Not Active,15.4,> 649,Cc1ccc(NC(=O)c2coc3cccc(O)c3c2=O)cc1C,"viability at 24 h, up to 10 µM [4]: ≥ 94.4%; viability at 24 h, up to 10 µM [5]: ≥ 94.4%; Activity [7]: 74.4%"
–,97.2,64,O=C(Nc1ccc(Cl)cc1)c1coc2ccc(O)cc2c1=O,IC50 [8]: 6190 nM
Not Active,–,> 970,COc1ccc2occ(C(=O)Nc3ccc(Cl)cc3)c(=O)c2c1,"viability at 24 h, up to 10 µM [4]: ≥ 94.4%; viability at 24 h, up to 10 µM [5]: ≥ 94.4%"
Not Active,–,> 15,COc1ccc2occ(C(=O)Nc3ccc(O)cc3)c(=O)c2c1,–
Not Active,344,> 29,Cc1ccc(NC(=O)c2coc3ccc(O)cc3c2=O)cc1,–
Not Active,15.7,> 637,Cc1ccc(NC(=O)c2coc3cccc(O)c3c2=O)cc1,"viability at 24 h, up to 10 µM [4]: ≥ 94.4%; viability at 24 h, up to 10 µM [5]: ≥ 94.4%; Activity [7]: 74.4%"
Not Active,–,> 48,COc1ccc2occ(C(=O)Nc3ccc(C)cc3)c(=O)c2c1,–
Not Active,13,> 769,O=C(Nc1ccccc1)c1coc2cccc(O)c2c1=O,"viability at 24 h, up to 10 µM [4]: ≥ 94.4%; viability at 24 h, up to 10 µM [5]: ≥ 94.4%; Activity [10]: 74.4%"
Not Active,55.1,> 181,Cc1ccc(NC(=O)c2cc(=O)c3cc(O)ccc3o2)cc1,–

# Further lines, the molecule ahead of its results:
SMILES,inhibition (INH) [1],IC50 [2] [nM],Ratio IC50 [3],further results
COc1ccc2oc(C(=O)Nc3ccc(O)cc3)cc(=O)c2c1,Not Active,–,–,inhibition (INH) [6]: Not Active
O=C(Nc1ccccc1)c1cc(=O)c2cc(O)ccc2o1,Not Active,31.3,> 319,–
Cc1ccc(NC(=O)c2cc(=O)c3cc(O)ccc3o2)cc1C,–,29.1,116,IC50 [8]: 3370 nM
COc1ccc2oc(C(=O)Nc3cccc(Cl)c3)cc(=O)c2c1,Not Active,–,–,inhibition (INH) [6]: Not Active
COc1ccc2oc(C(=O)Nc3ccc(C)cc3)cc(=O)c2c1,–,–,> 0.061,inhibition (INH) [6]: Not Active; IC50 [8]: 607 nM
COc1ccc2occ(C(=O)Nc3ccc(C)c(C)c3)c(=O)c2c1,Not Active,28.4,> 352,–
O=C(Nc1ccccc1)c1coc2ccc(O)cc2c1=O,Not Active,240,> 42,–
O=C(Nc1ccc(Cl)cc1)c1cc(=O)c2cc(O)ccc2o1,Not Active,14.3,> 700,"viability at 24 h, up to 10 µM [4]: ≥ 94.4%; viability at 24 h, up to 10 µM [5]: ≥ 94.4%"
C[C@H](NCc1ccc(OCc2cccc(F)c2)cc1)C(N)=O [SAFINAMIDE],–,–,–,inhibition at 0.25 h [9]: 23.7%
O=C(Nc1cccc(Cl)c1)c1cc(=O)c2cc(O)ccc2o1,–,68.9,130,IC50 [8]: 9000 nM
COc1ccc2oc(C(=O)Nc3ccc(Cl)cc3)cc(=O)c2c1,Not Active,–,–,inhibition (INH) [6]: Not Active
Cc1ccc(NC(=O)c2coc3ccc(O)cc3c2=O)cc1C,Not Active,262,> 38,–
O=C(Nc1ccc(O)cc1)c1cc(=O)c2cc(O)ccc2o1,Not Active,1030,> 9.7,–
COc1ccc2oc(C(=O)Nc3ccc(C)c(C)c3)cc(=O)c2c1,Not Active,–,–,inhibition (INH) [6]: Not Active
COc1ccc2occ(C(=O)Nc3ccccc3)c(=O)c2c1,Not Active,–,> 239,–
COc1ccc2oc(C(=O)Nc3ccccc3)cc(=O)c2c1,Not Active,–,–,inhibition (INH) [6]: Not Active
